# Data as given in US20260217828A1, “IMMUNE CHECKPOINT BLOCKADE THERAPY FOR TREATING STAPHYLOCOCCUS AUREUS INFECTIONS” (priority 2023, published 2026).
# System: bioluminescent MRSA (USA300 LAC::lux)
# Experiment: Transtibial implant-associated osteomyelitis in C57BL/6 mice, treated with sabatolimab or saline placebo
# Type: in vivo, Staphylococcus aureus
# Details: vs saline placebo
# Experimental: (FIG. 7A) Schematic illustration of the experimental design. 8-week-old C57BL/6 mice were subjected to transtibial implant-associated osteomyelitis using bioluminescent MRSA (USA300 LAC::lux) and treated with sabatolimab or a saline placebo control. The concentration of anti-TIM-3 mAb used in the study is also outlined.
# Similar assays were carried out to examine the efficacy trend of immune checkpoint blockade drug Sabatolimab (anti-TIM-3) in reducing S. aureus burden due to implant-associated osteomyelitis.
# Briefly, 8-week-old C57BL/6 mice were subjected to transtibial implant-associated osteomyelitis using bioluminescent MRSA (USA300 LAC::lux). The mise were then treated with sabatolimab or a saline placebo control. The concentration of anti-TIM-3 mAb used in the study was also outlined in FIG. 7A.
substance,measurement,setting,value
sabatolimab: immune checkpoint blockade drug Sabatolimab (anti-TIM-3),in vivo S. aureus growth (longitudinal BLI),"8-week-old C57BL/6 mice, MRSA USA300 LAC::lux, n=9-10, ANOVA p<0.05",significantly decreased
same,"disease severity by terminal ex vivo CFU on the tibia and internal organs (heart, liver, kidneys, and spleen)","C57BL/6 mice, day 14 post-surgery, n=9-10, t-test p<0.05",lower disease severity
